*1 amine or outer side, *2 acyl side, *3 side chain or, on linkers, in order; H or OH if unused. Where a SMILES comes first, the peptide text is derived from it. Bridges are numbered along the chain shown (N, C = ends). Roman numbers before positions name the chains, in order. [ ]: non-standard residue; d: D form. Actinocin(9to1) = Cc1c2oc3c(C)ccc(C(=O)[*:1])c3nc-2c(C(=O)[*:2])c(N)c1=O; NMeV = CN[C@H](C(=O)O)C(C)C; Sar = CNCC(=O)O

For assay [1], the target named is T1, hepadnavirus polymerase (Hepatitis B virus genotype D subtype ayw, UniProt P03156).
T1 construct: made in house; host or cells: Spodoptera frugiperda SF9 cells infected with recombinant baculoviruses (pVL1393-derived)
T1 sequence (P03156 whole entry): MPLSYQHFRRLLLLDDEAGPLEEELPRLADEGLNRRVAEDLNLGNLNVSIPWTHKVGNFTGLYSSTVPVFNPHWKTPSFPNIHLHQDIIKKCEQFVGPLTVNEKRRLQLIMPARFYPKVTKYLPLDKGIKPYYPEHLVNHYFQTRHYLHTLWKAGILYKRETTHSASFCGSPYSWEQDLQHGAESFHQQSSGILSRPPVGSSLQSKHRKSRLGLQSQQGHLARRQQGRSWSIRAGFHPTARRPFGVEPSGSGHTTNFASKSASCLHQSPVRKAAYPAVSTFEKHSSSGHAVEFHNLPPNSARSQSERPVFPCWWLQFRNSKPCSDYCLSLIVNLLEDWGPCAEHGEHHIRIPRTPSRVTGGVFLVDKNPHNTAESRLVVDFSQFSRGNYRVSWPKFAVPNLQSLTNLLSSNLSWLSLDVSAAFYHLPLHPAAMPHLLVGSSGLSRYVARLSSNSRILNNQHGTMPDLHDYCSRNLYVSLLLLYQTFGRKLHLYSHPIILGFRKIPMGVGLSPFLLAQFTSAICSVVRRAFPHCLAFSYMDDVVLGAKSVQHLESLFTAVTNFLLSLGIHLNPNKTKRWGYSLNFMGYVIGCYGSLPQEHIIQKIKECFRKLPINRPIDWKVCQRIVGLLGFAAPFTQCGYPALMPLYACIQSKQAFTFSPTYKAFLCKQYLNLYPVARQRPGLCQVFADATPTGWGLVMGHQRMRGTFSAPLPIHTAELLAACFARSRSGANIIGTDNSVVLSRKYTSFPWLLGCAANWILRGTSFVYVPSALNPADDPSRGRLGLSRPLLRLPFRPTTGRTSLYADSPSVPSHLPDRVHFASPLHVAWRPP
In words: In vitro polymerase activity of isolated core particles in the presence of Actinomycin D. It is filed as biochemical. Particulars: 100 μg/ml Actinomycin D; (−) strand synthesis from an RNA template. From the text:
This observation further confirms that the primary activity observed is the (−) strand synthesis from an RNA template. Site-directed mutagenesis has been used to change an tyr-met-asp-asp (SEQ ID NO:16) sequence in the HBV polymerase active site to a tyr-met-his-ala (SEQ ID NO:17) sequence, a mutation that has been previously shown to destroy polymerase activity. See, for example, Seifer and Strandring, Intervirology 38:295-303,1995; Wang & Seeger, Cell 71:663-670, 1992. For an analogous active site mutation, see Radziwill et al., J. Virol. 64:613-620,1990. When this mutant is used in the methods of the invention to create core particles, the core particles lack polymerase activity. This observation confirms that it is indeed hepadnavirus polymerase activity that is being observed in the core particles of the invention.
A 96 well plate was prepared with wells containing either various dilutions of test sample containing a prospective bioactive agent, a positive control, a known hepadnavirus polymerase inhibitor, or an EDTA sample for which no polymerase activity should be detected and which thus indicates, after the assay processing, non-specific, background radioactivity. The plate has eight rows of wells, A through H, and twelve columns of wells, 1 through 12. […]
The background radioactivity determined from column 12, wells E through H, was subtracted from all of the remaining values. […]

Assay [2] addresses T1, hepadnavirus polymerase. In words: Endogenous polymerase assay (EPA) with size analysis of endogenously labeled DNA from nucleocapsids, actinomycin D comparative sample. Particulars: 80-100 μg per ml actinomycin D in comparative sample. It counts as biochemical. How it is done:
The beads were resuspended in 50 μl EPA reaction mix (50 mM Tris-HCl, pH 7.4, 75 mM NH4Cl, 1 mM EDTA, 20 mM MgCl2, 0.1 mM β-mercaptoethanol, 0.5% Tween 20, 50 μM dNTP mix (Ultrapure, Pharmacia, Uppsala, Sweden)), and the resulting suspension was incubated at 37° C. for 6 h.
The beads were washed once with 800 μl IP wash buffer (50 mM Tris-HCl, pH 7.4, 150 mM NaCl, 5 mM EDTA, 1% Triton-X 100, 0.02% SDS) and resuspended in 50 μl TNE (10 mM Tris-HCl, pH 7.4, 150 mM NaCl, 1 mM EDTA) containing 1% SDS and 10 mM dithiothreitol. The beads were then heated to boiling temperature (100 C) for 7 min to disintegrate the capsids, and the supernates isolated by centrifugation and transferred to microfuge cups, with the supemates from […] parallel reactions combined in each microfuge cup. […]
The synthesis that is actinomycin D sensitive is measured with the above-described EPA assay where 80-100 μg per ml of actinomycin D are added in a comparative sample.
SF9 cells were harvested 90 hours postinfection with recombinant viruses (a) BV-ECPE, (b) BV-EC+BV-PDE, (c) BV-EC and (d) BV-PDE. […] Immunoprecipitated core particles were subjected to EPA as described above, and deproteinized nucleic acids isolated from the assay samples were analyzed on a 1% agarose gel, and visualized by autoradiography. […]

For the compound `Cc1c2oc3c(C)ccc(C(=O)N[C@@H]4C(=O)N[C@H](C(C)C)C(=O)N5CCC[C@H]5C(=O)N(C)CC(=O)N(C)[C@@H](C(C)C)C(=O)O[C@@H]4C)c3nc-2c(C(=O)N[C@@H]2C(=O)N[C@H](C(C)C)C(=O)N3CCC[C@H]3C(=O)N(C)CC(=O)N(C)[C@@H](C(C)C)C(=O)O[C@@H]2C)c(N)c1=O` [Actinomycin D] (I: T[dV]P[Sar][NMeV] / II: T[dV]P[Sar][NMeV]; ester I:1-I:C, II:1-II:C; linker I:N-II:N via Actinocin(9to1)), the “polymerase activity exhibited by core particles in the presence of Actinomycin D” value at hepadnavirus polymerase [1] was “active”. Also, the “actinomycin D sensitivity of EPA product nucleic acids, trans cores” value on hepadnavirus polymerase [2] (BV-EC+BV-PDE (trans) cores from SF9 cells) is reported as “not the trans products”. On hepadnavirus polymerase [2] (BV-ECPE (cis) cores from SF9 cells), the “actinomycin D sensitivity of EPA product nucleic acids, cis cores” value is “mostly actinomycin D sensitive”.

Values taken from US6518014B1, “Hepadnavirus cores” (priority 1996, dated 2003).
